Source: patent US9249306B2, “Quenched dendrimeric dyes for florescence detection” (Carnegie Mellon University, priority 2009, dated 2016)
Like-named read-outs stand apart in the source and are kept apart here.

How the values were obtained:
[1] = system: control strain JAR200 that does not express scFv; assay: Flow cytometry, control strain that does not express scFv; format: cell-based, Saccharomyces cerevisiae; details: 300 nM dyedron, 675/50 bandpass
Description: (§1) FIG. 15. Flow cytometric analysis of dyedron-labeled yeast by exciting donor (blue) or acceptor (red). Saccharomyces cerevisiae cells expressing L5-MG E52D on their surface were analyzed essentially as described in WO 08/092,041 and in Szent-Gyorgyi, C.; Schmidt, B. F.; Creeger, Y.; Fisher, G. W.; Zakel, K. L.; Adler, S.; Fitzpatrick, J. A. J.; Woolford, C. A.; Yan, Q.; Vasilev, K. V.; Berget, P. B.; Bruchez, M. P.; Jarvik, J. W.; Waggoner, A. Nature Biotechnology 2008, 26, 235-240. Two aliquots of each stained population and an unstained control (U) were respectively analyzed, exciting at 532 nm (donor) or 635 nm (acceptor), and collecting emission through a 675/50 nm bandpass (BP) filter. Each analysis comprised 100,000 cells. Stained samples contain a sub-population of non-fluorescent cells due to loss of scFv-encoding plasmid, whose signal corresponds to that of unstained samples (marked by thin lines). Controls show virtually no fluorescence generated by dyedrons on cell surfaces in the absence of expressed FAP (Table 3). Unstained cells excited at 532 nm are relatively brighter than those excited at 635 nm due to higher cellular autofluorescence at the shorter wavelength. Doublet stained peaks correspond to unbudded and budded yeast cells, and are typical for such experiments. Separation of the positive cells from negative cells remains essentially constant under 635 nm excitation but increases in proportion to the number of Cy3 donors under 532 nm excitation. The enhanced excitation in the dyedrons results in increased sensitivity in the flow cytometer.

L5-MG E52D [2] = format: physicochemical, human; details: soluble dyedron/L5-MG E52D complex
L5-MG E52D [3] = format: physicochemical, human; details: soluble dyedron/L5-MG E52D complex; 620 nm excitation
Description: Fluoromodules were assembled as above, and quantum yields based on the acceptor MG excitation band were determined as described using Cy5.18 as the calibration dye (Szent-Gyorgyi, C., et al., Nature Biotechnology 2008, 26, 235-240). Quantum yields determined with 620 nm excitation (Table 2) were essentially the same as unreported quantum yields determined with 590 nm excitation (<5% difference).

L5-MG E52D [4] = format: binding, human; details: yeast cell surface displayed L5-MG E52D; PBS+
Description: Microplate fluorometry was carried out on a Tecan Safire2 microplate reader using 96 well microplates with 5×10^6 yeast cells/well.
Yeast JAR200 cells expressing L5-MG E52D were suspended at 10^7 cells/ml in modified PBS+ buffer in the presence of the indicated dyedron concentrations. Fluorescence was read on a Safire2 plate fluorimeter. KD values reported in Table 2 were determined using GraphPad Prism 4 software fits to the one site hyperbolic binding curves shown here. Under these conditions, KD values below 1 nM cannot be determined precisely. Plateau fluorescence levels correspond closely to the relative fluorescence signals seen in flow cytometric analyses using 635 nm laser excitation of the MG band (Table 3).

[5] = system: yeast strain JAR200 expressing L5-MG E52D scFv on the cell surface; assay: Flow cytometric quantification of dyedron binding to yeast displayed L5-MG E52D; format: cell-based, Saccharomyces cerevisiae; details: for increase in specific brightness (factor), 532 nm vs 635 nm staining ratio / 532 laser median / 635 laser median / 532 laser mean / 635 laser mean: 300 nM dyedron; for increase in specific brightness (factor), 532 nm vs 635 nm staining ratio: live yeast; for 532 laser median / 635 laser median / 532 laser mean / 635 laser mean: 675/50 bandpass, JAR200 L5-MG E52D; for 532 laser mean / 635 laser mean: gated positive population; for FACS532/FACS635: median of stained population - median of unstained control
Description: as §1

L5-MG E52D [6] = format: physicochemical, human; details: bound to L5-MG E52D; for Relative quantum yield, 514 nm / Relative quantum yield, 532 nm / Relative quantum yield, 561 nm: normalized to 633 nm value; for Relative quantum yield, 633 nm: set to 1.00
[7] = Donor array fluorescence of Cy3-labeled cystamine core PAMAM dendrimers; format: physicochemical
Description: To test the impact of high loading on donor array fluorescence, two cystamine core PAMAM dendrimers (Gen2-16 NH2 and Gen3-32 NH2) were labeled with an excess of monoreactive Cy3-NHS ester. After removal of excess dye by gel filtration the resulting macromolecules were analyzed by electrophoresis, and found to have low net mobility. Because each Cy3 molecule carries one net negative charge, a fully modified dendron should have a net charge of −2. […] However, these conjugates allow for the assessment of the potential risk of donor quenching.

selected scFv = assay: Fluorescence activation of malachite green by selected scFv; format: biochemical; details: in buffer
[8] = not given; remark: listed apart in the source

CC[N+]1=C(/C=C/C=C2/N(CCCCCC(=O)NCC(CNC(=O)CCCCCN3/C(=C/C=C/C4=[N+](CC)c5ccc(S(=O)(=O)O)cc5C4(C)C)C(C)(C)c4cc(S(=O)(=O)[O-])ccc43)OCC(=O)NCCCOc3ccc(C(=C4C=CC(=[N+](C)C)C=C4)c4ccc(N(C)C)cc4)cc3)c3ccc(S(=O)(=O)[O-])cc3C2(C)C)C(C)(C)c2cc(S(=O)(=O)[O-])ccc21 (centres unmarked) [BCM]
532 laser mean [1]: 113
532 laser median [1]: 84
635 laser mean [1]: 105
635 laser median [1]: 64
εmax [M^−1cm^−1] (L5-MG E52D [2]): 290,000 M^−1cm^−1
εmax [nm] (L5-MG E52D [2]): 551 nm
φMG (quantum yield for MG excitation peak) (L5-MG E52D [3]): 0.047
Kd (L5-MG E52D [4]): 4 nM
increase in specific brightness (factor), 532 nm vs 635 nm staining ratio [5]: ~3
532 laser median [5]: 6912
635 laser median [5]: 2047
532 laser mean [5]: 17894
635 laser mean [5]: 5521
FACS532/FACS635 [5]: 3.27
Relative quantum yield, 514 nm (L5-MG E52D [6]): 0.92
Relative quantum yield, 532 nm (L5-MG E52D [6]): 0.86
Relative quantum yield, 561 nm (L5-MG E52D [6]): 1.31
Relative quantum yield, 633 nm (L5-MG E52D [6]): 1.00

CCN1/C(=C\C=C\C2=[N+](CCCCCC(=O)NCCNC(=O)CCCOc3ccc(C(=C4C=CC(=[N+](C)C)C=C4)c4ccc(N(C)C)cc4)cc3)c3ccc(S(=O)(=O)[O-])cc3C2(C)C)C(C)(C)c2cc(S(=O)(=O)[O-])ccc21 [CM, 1-{6-[(2-{[4-(4-{[4-(dimethylamino)phenyl][4-(dimethyliminio)cyclohexa-2,5-dien-1-ylidene]methyl}phenoxy)butanoyl]amino}ethyl)amino]-6-oxohexyl}-2-[(1E,3Z)-3-(1-ethyl-3,3-dimethyl-5-sulfonato-1,3-dihydro-2H-indol-2-ylidene)prop-1-en-1-yl]-3,3-dimethyl-3H-indolium-5-sulfonate]
532 laser mean [1]: 123
532 laser median [1]: 95
635 laser mean [1]: 108
635 laser median [1]: 65
εmax [M^−1cm^−1] (L5-MG E52D [2]): 140,000 M^−1cm^−1
εmax [nm] (L5-MG E52D [2]): 552 nm
φMG (quantum yield for MG excitation peak) (L5-MG E52D [3]): 0.057
Kd (L5-MG E52D [4]): < 1 nM
increase in specific brightness (factor), 532 nm vs 635 nm staining ratio [5]: about 2
532 laser median [5]: 6170
635 laser median [5]: 2793
532 laser mean [5]: 15946
635 laser mean [5]: 7455
FACS532/FACS635 [5]: 2.17
Relative quantum yield, 514 nm (L5-MG E52D [6]): 1.24
Relative quantum yield, 532 nm (L5-MG E52D [6]): 1.08
Relative quantum yield, 561 nm (L5-MG E52D [6]): 1.41
Relative quantum yield, 633 nm (L5-MG E52D [6]): 1.00

CCN1/C(=C\C=C\C2=[N+](CCCCCC(=O)O)c3ccc(S(=O)(=O)O)cc3C2(C)C)C(C)(C)c2cc(S(=O)(=O)[O-])ccc21 [Cy3]
Estimated Diam. (nm) [7]: 1.5 nm

CN(C)c1ccc(C(=C2C=CC(=[N+](C)C)C=C2)c2ccc(OCCCC(=O)NCCNC(=O)CCC(=O)NCCOCCOCCN)cc2)cc1 [M, malachite green diethyleneglycolamine]
532 laser mean [1]: 111
532 laser median [1]: 76
635 laser mean [1]: 118
635 laser median [1]: 74
εmax [M^−1cm^−1] (L5-MG E52D [2]): 79,000 M^−1cm^−1
εmax [nm] (L5-MG E52D [2]): 642 nm
φMG (quantum yield for MG excitation peak) (L5-MG E52D [3]): 0.055
Kd (L5-MG E52D [4]): < 1 nM
532 laser median [5]: 335
635 laser median [5]: 2635
532 laser mean [5]: 435
635 laser mean [5]: 7089
FACS532/FACS635 [5]: 0.07
Relative quantum yield, 561 nm (L5-MG E52D [6]): 1.44
Relative quantum yield, 633 nm (L5-MG E52D [6]): 1.00
extinction coefficient (PBS+): 50,700 M^−1cm^−1
extinction coefficient (ethanol/5% HAc): 91,500 M^−1cm^−1

CN(C)c1ccc(C(=C2C=CC(=[N+](C)C)C=C2)c2ccccc2)cc1 [Malachite green]
activation to fluorescent state (fold) (selected scFv): > 15,000 fold

CN(C)c1ccc(C(C#Cc2ccc(N(C)CCOCCCC(=O)O)cc2)=C2C=CC(=[N+](C)C)C=C2)cc1.[Cl-] [acetylenic derivative of malachite green]
quantum yield in water [8]: ≤ 0.003
